From patent US20220177485A1, “CAMPTOTHECIN DERIVATIVE, PREPARATION METHOD THEREFOR AND APPLICATION THEREOF” (MARINE BIOMEDICAL RESEARCH INSTITUTE OF QINGDAO CO., LTD., priority 2018, published 2022)
“And” between values parts separate entries of the source, which are not always exact repeats. Identical values can stand only once. Like-named read-outs stand apart in the source and are kept apart here. Marks after values point to notes of the source that are not given here. Values belong to the compound of their own block, whether it stands above or below them.

Columns and labels:
[1] = test system: MDA-MB-231 cells (human breast cancer cells); assay: growth inhibition of tumor cells in vitro, MDA-MB-231; assay type: cell-based; conditions: Homo sapiens
Excerpt: (§1) We tested compounds target a variety of tumor cell for the growth inhibition to show its antitumor activity by using the method of the field technicians known. Chooses the tumor cell lines include: A549 cell non-small cell lung cancer cell line (people), K562 cells (human chronic myeloid leukemia cells), NCI-H1975 cells (non-small cell lung adenocarcinoma cancer cell), MDA-MB-231 cells (human breast cancer cells) and HCT-116 cells (human colon cancer cells).

[2] = test system: NCI-H1975 cells (non-small cell lung adenocarcinoma cancer cell); assay: growth inhibition of tumor cells in vitro, NCI-H1975; assay type: cell-based; conditions: Homo sapiens
Excerpt: as §1

[3] = biological target: heat shock protein (HSP90); assay: macromolecular interaction on chip, HSP90; assay type: binding; conditions: compound fixed on the chip; HSP90 100 nM
Protocol: (§2) The experimental scheme: 1. Fixed the compounds on the chip:
(§3) Mobile phase were EGF (1 μM), FGF (1 μM), HSP90 (100 nM), FKBP12 (100 nM).
(§4) Detection whether small molecule compounds combined with the provided protein of heat shock protein (HSP90), epidermal growth factor (EGF) and fibroblast growth factor (FGF); and provide relevant data of combined dynamics.

[4] = test system: HCT-116 transplanted tumors; conditions: for Tumor volume size: day 23, x ± SE; for Inhibitory rate: day 23
Protocol: Digesting collecting cells after the desired amount of cells. Diluting the cells into 250 million/ml cell suspension with 5 A culture medium containing 10% fetal bovine serum. […] Stay around tumor growth to 1 g tissue block, cutting short diameter growth of around 1 mm plaque, by inserting a catheter method. […] Compound of low dose group and high dose group were given by gavages once a week, respectively. The group of irinotecan and 5-fluorouracil were treated by intravenous every three days. Recording changes in body weight in mice, and tumors size three times a week.

[5] = test system: A549 lung transplantation tumor model and RM-1 (prostate) transplantation tumor model; assay: antitumor activity in vivo, transplanted tumor models in kunming mice; conditions: intraperitoneal injection
Protocol: Using the known in the field of technology, the antitumor activity of compounds in vivo was tested in kunming mice transplanted tumor model. The transplantation tumor models tested including A549 lung transplantation tumor model and RM-1 (prostate) transplantation tumor model. We conducted the tests by intraperitoneal injection.

[6] = biological target: fibroblast growth factor (FGF); assay: macromolecular interaction on chip, FGF; assay type: binding; conditions: compound fixed on the chip; FGF 1 μM
Protocol: as §2, §3, §4

[7] = biological target: T1, epidermal growth factor (EGF) (Homo sapiens, UniProt P01133); assay: macromolecular interaction on chip, EGF; assay type: binding; conditions: for KD EGF: compound fixed on the chip, EGF 1 μM
T1 construct: epidermal growth factor (EGF)
Protocol: as §2, §3, §4

[8] = test system: HCT-116 cells (human colon cancer cells); assay: cells; assay type: cell-based; conditions: for IC50: Homo sapiens
Excerpt: as §1

[9] = test system: K562 cells (human chronic myeloid leukemia cells); assay: growth inhibition of tumor cells in vitro, K562; assay type: cell-based; conditions: K562 cell line, read-out: IC50 K562
Excerpt: as §1

[10] = test system: A549 cell non-small cell lung cancer cell line; assay: growth inhibition of tumor cells in vitro, A549; assay type: cell-based, human; conditions: Homo sapiens, A549, A549 cell line; read-out: IC50 A549
Excerpt: as §1

[11] = MDA-MB-231 cell line, read-out: IC50 MDA-MB-231
[12] = NCI-H1975 cell line, read-out: IC50 NCI-H1975
[13] = HCT-116 cell line, read-out: IC50 HCT-116
[14] = 20 mg/kg intravenous every three days
[15] = MDA-MB-231, read-out: IC50 MDA-MB-231
[16] = NCI-H1975, read-out: IC50 NCI-H1975
[17] = HCT-116, read-out: IC50 HCT-116

T1 sequence (P01133 971-1023 limits assumed, species assumed): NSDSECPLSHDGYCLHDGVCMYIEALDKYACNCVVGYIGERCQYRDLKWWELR

Compound: CC[C@@]1(O)C(=O)OCc2c1cc1n(c2=O)Cc2c-1nc1cc3c(cc1c2-c1ccoc1)OCO3 [Compound 23, 20(S)-7-(furan-3-yl)-10,11-methylenedioxy-camptothecin]
- IC50 [1, 11]: 83.8 ± 6.64 nM
- IC50 [2, 12]: 95.5 ± 5.57 nM
- KD HSP90 [3]: No combination
- mice weight change ([4]; high and low dose group, weight returned after 10 days but still lower than control): declined
- Tumor volume size ([4]; high dose 5 mg/kg, gavage once a week): 19.94 ± 2.17*^a mm^3
- Inhibitory rate ([4]; high dose 5 mg/kg, gavage once a week, 5 mg/kg): 87.04% and 95.45^a %
- Tumor volume size ([4]; low dose 2.5 mg/kg, gavage once a week): 100.52 ± 20.45*^a mm^3
- Inhibitory rate ([4]; low dose 2.5 mg/kg, gavage once a week, 2.5 mg/kg): 95.45% and 87.04^a %
- antitumor activity in vivo compared with topotecan [5]: better than that of topotecan
- KD FGF [6]: No combination
- KD EGF [7]: No combination
- IC50 [8, 13]: 2.97 ± 0.25 nM

Compound: CC[C@@]1(O)C(=O)OCc2c1cc1n(c2=O)Cc2c-1nc1cc3c(cc1c2-c1cnn(C)c1)OCO3 [Compound 25, 20(S)-7-(1-methyl-1H-pyrazol-4-yl)-10,11-methylenedioxy-camptothecin]
- IC50 [1, 11]: 3.76 ± 1.08 nM
- IC50 [2, 12]: 35.2 ± 3.15 nM
- KD HSP90 [3]: No combination
- KD FGF [6]: No combination
- KD EGF [7]: No combination
- IC50 [8, 13]: 0.34 ± 0.06 nM

Compound: CC[C@@]1(O)C(=O)OCc2c1cc1n(c2=O)Cc2c-1nc1cc3c(cc1c2-c1ccsc1)OCO3 [Compound 24, 20(S)-7-(thiophene-3-yl)-10,11-methylenedioxy-camptothecin]
- IC50 [1, 11]: 1.93 ± 0.26 nM
- IC50 [2, 12]: 16.2 ± 0.83 nM
- KD HSP90 [3]: No combination
- KD FGF [6]: No combination
- KD EGF [7]: No combination
- ranking of cytotoxic activity in HCT-116 [8]: best cytotoxic activity
- IC50 [8, 13]: 0.21 ± 0.02 nM

- IC50 [1, 11]: 123 ± 18.2 nM
- IC50 [9]: 636 ± 8.95 nM
- IC50 [2, 12]: > 500 nM
- KD HSP90 [3]: No combination
- IC50 [10]: 559 ± 8.6 nM
- KD FGF [6]: No combination
- KD EGF [7]: No combination
- IC50 [8, 13]: > 500 nM
Compound: CC[C@@]1(O)C(=O)OCc2c1cc1n(c2=O)Cc2cc3c(CN(C)C)c(O)ccc3nc2-1 [Topotecan, reference compound]

Compound: O=c1[nH]cc(F)c(=O)[nH]1 [5 - fluorouracil, 5-fluorouracil, reference compound]
- Inhibitory rate [4, 14]: 55.64^a %
- Tumor volume size [4, 14]: 342.28 ± 128.00^a mm^3

Compound: CC[C@@]1(O)C(=O)OCc2c1cc1n(c2=O)Cc2c-1nc1cc3c(cc1c2CCc1ccccc1N1CCOCC1)OCO3 [Compound 15]
- melting point: > 250 °C
- antitumor activity in vivo compared with topotecan [5]: better than that of topotecan

Compound: CC[C@@]1(O)C(=O)OCc2c1cc1n(c2=O)Cc2c-1nc1cc3c(cc1c2CCN1CCOCC1)OCO3 [Compound 51, 20(S)-7-(2-morpholinoethyl)-10,11-methylenedioxy-camptothecin]
- IC50 [9]: 13 ± 3.25 nM
- KD HSP90 [3]: No combination
- antitumor activity in vivo compared with topotecan [5]: better than that of topotecan
- KD FGF [6]: can combine
- Kd [6]: 46 nM
- Kd [7]: 4.15 nM
- KD EGF [7]: can combine

Compound: CC[C@@]1(O)C(=O)OCc2c1cc1n(c2=O)Cc2c-1nc1cc3c(cc1c2CCc1ccc(N2CCCC2)c(F)c1)OCO3 [Compound 11, 20(S)-7-(3-fluoro-4-(pyrrolidin-1-yl))-10,11-methylenedioxy-camptothecin]
- melting point: > 250 °C
- IC50 [9]: 305 ± 8.75 nM
- antitumor activity in vivo compared with topotecan [5]: better than that of topotecan

Compound: CC[C@@]1(O)C(=O)OCc2c1cc1n(c2=O)Cc2c-1nc1cc3c(cc1c2-c1ccncc1)OCO3 [Compound 21, 20(S)-7-(pyridin-4-yl)-10,11-methylenedioxy-camptothecin]
- IC50 [1, 15]: 4.92 ± 0.36 nM
- IC50 [2, 16]: 20.4 ± 3.65 nM
- KD HSP90 [3]: No combination
- KD FGF [6]: can combine
- Kd [6]: 18.9 nM
- Kd [7]: 49.3 nM
- KD EGF [7]: can combine
- IC50 [8, 17]: 0.74 ± 0.07 nM

Compound: CCc1c2c(nc3ccc(OC(=O)N4CCC(N5CCCCC5)CC4)cc13)-c1cc3c(c(=O)n1C2)COC(=O)[C@]3(O)CC [Irinotecan, reference compound]
- Inhibitory rate ([4]; 6 mg/kg intravenous every three days): 78.12^a %

Compound: CC[C@@]1(O)C(=O)OCc2c1cc1n(c2=O)Cc2c-1nc1cc3c(cc1c2-c1ccc2[nH]ccc2c1)OCO3 [Compound 29]
- IC50 [1, 15]: 7.98 ± 0.72 nM
- IC50 [2, 16]: 79.7 ± 3.52 nM
- IC50 [8, 17]: 1.84 ± 0.11 nM

Compound: CC[C@@]1(O)C(=O)OCc2c1cc1n(c2=O)Cc2c-1nc1cc3c(cc1c2-c1ccnn1C)OCO3 [Compound 30]
- IC50 [1, 15]: 43.4 ± 2.18 nM
- IC50 [2, 16]: 37.3 ± 2.82 nM
- IC50 [8, 17]: 0.93 ± 0.08 nM
